The structures appear in SMILES notation.

For the test, the target named is T1, full-length beta-Catenin (Uniprot ID P35222) (Homo sapiens, UniProt P35222).
T1 construct: 10 nM full-length beta-Catenin (Uniprot ID P35222)
T1 sequence (P35222 1-781): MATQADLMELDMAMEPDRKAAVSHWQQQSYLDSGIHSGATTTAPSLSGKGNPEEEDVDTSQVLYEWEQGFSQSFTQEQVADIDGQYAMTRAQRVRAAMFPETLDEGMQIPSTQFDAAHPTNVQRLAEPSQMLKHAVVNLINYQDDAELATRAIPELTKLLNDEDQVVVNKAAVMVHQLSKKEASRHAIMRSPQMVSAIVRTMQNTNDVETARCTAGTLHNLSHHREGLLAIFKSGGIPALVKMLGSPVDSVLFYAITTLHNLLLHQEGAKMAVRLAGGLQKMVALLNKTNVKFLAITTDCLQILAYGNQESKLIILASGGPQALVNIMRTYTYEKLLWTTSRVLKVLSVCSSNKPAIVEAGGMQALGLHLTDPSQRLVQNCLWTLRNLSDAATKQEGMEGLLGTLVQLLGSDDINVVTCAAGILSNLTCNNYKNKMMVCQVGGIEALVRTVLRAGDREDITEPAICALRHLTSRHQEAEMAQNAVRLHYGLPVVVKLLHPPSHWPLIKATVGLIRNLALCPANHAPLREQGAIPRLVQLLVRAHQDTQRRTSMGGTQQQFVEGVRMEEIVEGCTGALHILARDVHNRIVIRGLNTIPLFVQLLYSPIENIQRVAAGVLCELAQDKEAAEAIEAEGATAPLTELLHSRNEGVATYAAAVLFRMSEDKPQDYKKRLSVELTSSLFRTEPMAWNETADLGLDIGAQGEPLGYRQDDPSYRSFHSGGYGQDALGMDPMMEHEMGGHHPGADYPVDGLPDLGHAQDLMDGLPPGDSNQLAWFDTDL
In words: Fluorescence polarization IC50 (beta-catenin / 5FAM-TCF4 10-53 competition). It is filed as binding. The following applies: fluorescence polarization; read-out: beta-Catenin FP IC50.
By IC50 is commonly meant the concentration that inhibits the measured activity by half. As for `CC(=O)N1CCC[C@]12CC=CCCCC1(CCCC=CCCCOC(=O)N3CC[C@@](C(=O)N[C@@H](Cc4ccsc4)C(=O)N[C@@H](Cc4csc5ccccc45)C(=O)N[C@@H](Cc4ccccc4)C(N)=O)(C3)NC(=O)[C@H]([C@@H](C)O)NC(=O)[C@H](Cc3ccccc3)NC(=O)[C@H](C)NC(=O)[C@H](C)NC(=O)[C@H]([C@@H](C)O)NC(=O)[C@H](CC(N)=O)NC1=O)NC(=O)[C@H](CC(C)(C)C)NC(=O)[C@H](CC(=O)O)NC2=O` (stereo partly drawn) [I-2144, Ac-PL3-Asp-Npg-B5-Asn-Thr-Ala-Ala-Phe-Thr-PyrS2-3Thi-BztA-Phe-NH2], the IC50 was determined as 2020 nM.
For `CC(=O)N1CCC[C@]12CC=CCCCC1(CCCC=CCCCOC(=O)N3CC[C@@](C(=O)N[C@@H](Cc4ccsc4)C(=O)N[C@@H](Cc4csc5ccccc45)C(=O)N[C@@H](Cc4ccccc4)C(N)=O)(C3)NC(=O)[C@H]([C@@H](C)O)NC(=O)[C@H](Cc3ccccc3)NC(=O)[C@H](C)NC(=O)[C@H](C)NC(=O)[C@H]([C@@H](C)O)NC(=O)[C@H](CC(N)=O)NC1=O)NC(=O)[C@H](CC(C)(C)C)NC(=O)[C@H](CC(=O)O)NC2=O` (stereo partly drawn) [I-2145, Ac-PL3-Asp-Npg-B5-Asn-Thr-Ala-Ala-Phe-Thr-PyrS2-3Thi-BztA-Phe-NH2], the IC50 is 2070 nM.
For `CC(=O)N1CCC[C@]12CC=CCCCC1(CCCC=CCCCOC(=O)N3CC[C@@](C(=O)N[C@@H](Cc4ccsc4)C(=O)N[C@@H](Cc4csc5ccccc45)C(=O)N[C@@H](CCC(N)=O)C(N)=O)(C3)NC(=O)[C@H](Cc3c[nH]cn3)NC(=O)[C@H](Cc3ccccc3)NC(=O)[C@H](C)NC(=O)[C@H](C)NC(=O)[C@H]([C@@H](C)O)NC(=O)[C@H](CC(N)=O)NC1=O)NC(=O)[C@H](CC(C)(C)C)NC(=O)[C@H](CC(=O)O)NC2=O` (stereo partly drawn) [I-2146, Ac-PL3-Asp-Npg-B5-Asn-Thr-Ala-Ala-Phe-His-PyrS2-3Thi-BztA-Gln-NH2] the value was 248 nM; for `CC(=O)N1CCC[C@]12CC=CCCCC1(CCCC=CCCCOC(=O)N3CC[C@@](C(=O)N[C@@H](Cc4ccsc4)C(=O)N[C@@H](Cc4csc5ccccc45)C(=O)N[C@@H](CCC(N)=O)C(N)=O)(C3)NC(=O)[C@H](Cc3c[nH]cn3)NC(=O)[C@H](Cc3ccccc3)NC(=O)[C@H](C)NC(=O)[C@H](C)NC(=O)[C@H]([C@@H](C)O)NC(=O)[C@H](CC(N)=O)NC1=O)NC(=O)[C@H](CC(C)(C)C)NC(=O)[C@H](CC(=O)O)NC2=O` (stereo partly drawn) [I-2147, Ac-PL3-Asp-Npg-B5-Asn-Thr-Ala-Ala-Phe-His-PyrS2-3Thi-BztA-Gln-NH2], 390 nM; for `CC(=O)N1CCC[C@]12CC=CCCCC1(CCCC=CCCCOC(=O)N3CC[C@@](C(=O)N[C@@H](Cc4ccsc4)C(=O)N[C@@H](Cc4csc5ccccc45)C(=O)N[C@@H](CCC(N)=O)C(N)=O)(C3)NC(=O)[C@H](CC(N)=O)NC(=O)[C@H](Cc3ccccc3)NC(=O)[C@H](C)NC(=O)[C@H](C)NC(=O)[C@H]([C@@H](C)O)NC(=O)[C@H]([C@@H](C)O)NC1=O)NC(=O)[C@H](CC(C)(C)C)NC(=O)[C@H](CC(=O)O)NC2=O` (stereo partly drawn) [I-2149, Ac-PL3-Asp-Npg-B5-Thr-Thr-Ala-Ala-Phe-Asn-PyrS2-3Thi-BztA-Gln-NH2], 7180 nM.
On to `CC(=O)N1CCC[C@]12CC=CCCCC1(CCCC=CCCCOC(=O)N3CC[C@@](C(=O)N[C@@H](Cc4cccc(Br)c4)C(=O)N[C@@H](Cc4ccsc4)C(=O)N[C@@H](CCC(N)=O)C(N)=O)(C3)NC(=O)[C@H](CC(C)C)NC(=O)[C@H](Cc3ccccc3)NC(=O)[C@H](C)NC(=O)[C@H](C)NC(=O)[C@H](Cc3cccc(C(=O)O)c3)NC(=O)[C@H](CC(=O)O)NC1=O)NC(=O)[C@H](CC(C)(C)C)NC(=O)[C@H](CC(=O)O)NC2=O` (stereo partly drawn) [I-2152, Ac-PL3-Asp-Npg-B5-Asp-3COOHF-Ala-Ala-Phe-Leu-PyrS2-3BrF-3Thi-Gln-NH2], for which the IC50 was 3080 nM.
On to `CC(=O)N1CCC[C@]12CC=CCCCC1(CCCC=CCCCOC(=O)N3CC[C@@](C(=O)N[C@@H](Cc4cccc(Br)c4)C(=O)N[C@@H](Cc4ccccc4)C(=O)N[C@@H](CCC(N)=O)C(N)=O)(C3)NC(=O)[C@H](CC(C)C)NC(=O)[C@H](Cc3ccccc3)NC(=O)[C@H](C)NC(=O)[C@H](C)NC(=O)[C@H](Cc3cccc(C(=O)O)c3)NC(=O)[C@H](CC(=O)O)NC1=O)NC(=O)[C@H](CC(C)(C)C)NC(=O)[C@H](CC(=O)O)NC2=O` (stereo partly drawn) [I-2153, Ac-PL3-Asp-Npg-B5-Asp-3COOHF-Ala-Ala-Phe-Leu-PyrS2-3BrF-Phe-Gln-NH2], for which the IC50 came to 1480 nM.
The same measure for `CC(=O)N1CCC[C@]12CC=CCCCC1(CCCC=CCCCOC(=O)N3CC[C@@](C(=O)N[C@@H](Cc4cccc(Br)c4)C(=O)N[C@@H](CC4CCC4)C(=O)N[C@@H](CCC(N)=O)C(N)=O)(C3)NC(=O)[C@H](CC(C)C)NC(=O)[C@H](Cc3ccccc3)NC(=O)[C@H](C)NC(=O)[C@H](C)NC(=O)[C@H](Cc3cccc(C(=O)O)c3)NC(=O)[C@H](CC(=O)O)NC1=O)NC(=O)[C@H](CC(C)(C)C)NC(=O)[C@H](CC(=O)O)NC2=O` (stereo partly drawn) [I-2154, Ac-PL3-Asp-Npg-B5-Asp-3COOHF-Ala-Ala-Phe-Leu-PyrS2-3BrF-Cba-Gln-NH2]: 9550 nM.
Regarding `CC(=O)N1CCC[C@]12CC=CCC1(CC=CCCCCOC(=O)N3CC[C@@](C(=O)N[C@@H](Cc4ccsc4)C(=O)N[C@@H](Cc4csc5ccccc45)C(=O)N[C@@H](CCC(N)=O)C(N)=O)(C3)NC(=O)[C@H](CC(C)C)NC(=O)[C@H](Cc3ccccc3)NC(=O)[C@H](C)NC(=O)[C@H](C)NC(=O)[C@H](CC(=O)O)NC(=O)[C@H](CC(=O)O)NC1=O)NC(=O)[C@H](CC(C)(C)C)NC(=O)[C@H](CC(=O)O)NC2=O` (stereo partly drawn) [I-2157, Ac-PL3-Asp-Npg-B3-Asp-Asp-Ala-Ala-Phe-Leu-PyrS3-3Thi-BztA-Gln-NH2], the IC50 was determined as 141 nM.
For `CC(=O)N1CCC[C@]12CCCCC1(CCCCCCOC(=O)N3CC[C@@](C(=O)N[C@@H](Cc4ccsc4)C(=O)N[C@@H](Cc4csc5ccccc45)C(=O)N[C@@H](CCC(N)=O)C(N)=O)(C3)NC(=O)[C@H](CC(C)C)NC(=O)[C@H](Cc3ccccc3)NC(=O)[C@H](C)NC(=O)[C@H](C)NC(=O)[C@H](CC(=O)O)NC(=O)[C@H](CC(=O)O)NC1=O)NC(=O)[C@H](CC(C)(C)C)NC(=O)[C@H](CC(=O)O)NC2=O` (stereo partly drawn) [I-2160, Ac-PL3-Asp-Npg-B3-Asp-Asp-Ala-Ala-Phe-Leu-PyrS2-3Thi-BztA-Gln-NH2] the value was 1240 nM.
As to `CC(=O)N1CCC[C@]12CC=CCCCC1(CCCC=CCCCOC(=O)N3CC[C@@](C(=O)N[C@@H](Cc4cccc(C(N)=O)c4)C(=O)N[C@@H](Cc4csc5ccccc45)C(=O)N[C@@H](CCC(N)=O)C(N)=O)(C3)NC(=O)[C@H](CC(C)C)NC(=O)[C@H](Cc3ccccc3)NC(=O)[C@H](C)NC(=O)[C@H](CCCCNC(C)C)NC(=O)[C@H](CCC(N)=O)NC(=O)[C@H](CC(=O)O)NC1=O)NC(=O)[C@H](CC1CCCCC1)NC(=O)[C@H](CC(N)=O)NC2=O` (stereo partly drawn) [I-2163, Ac-PL3-Asn-Cha-B5-Asp-Gln-iPrLys-Ala-Phe-Leu-PyrS2-3cbmf-BztA-Gln-NH2], the 50% inhibitory concentration (IC50) was determined as 3720 nM.
As to `CC(=O)N1CCC[C@]12CC=CCCCC1(CCCC=CCCCOC(=O)N3CC[C@@](C(=O)N[C@@H](Cc4cccc(C(N)=O)c4)C(=O)N[C@@H](Cc4csc5ccccc45)C(=O)N[C@@H](CCC(N)=O)C(N)=O)(C3)NC(=O)[C@H](CC(N)=O)NC(=O)[C@H](Cc3ccccc3)NC(=O)[C@H](C)NC(=O)[C@H](CCCCNC(C)C)NC(=O)[C@H](CCC(N)=O)NC(=O)[C@H](CC(=O)O)NC1=O)NC(=O)[C@H](CC1CCCCC1)NC(=O)[C@H](CC(N)=O)NC2=O` (stereo partly drawn) [I-2164, Ac-PL3-Asn-Cha-B5-Asp-Gln-iPrLys-Ala-Phe-Asn-PyrS2-3cbmf-BztA-Gln-NH2], the 50% inhibitory concentration (IC50) turned out to be 1180 nM.
For `CC(=O)N1CCC[C@]12CC=CCCCC1(CCCC=CCCCOC(=O)N3CC[C@@](C(=O)N[C@@H](Cc4ccccc4)C(=O)N[C@@H](Cc4csc5ccccc45)C(=O)N[C@@H](CCO)C(N)=O)(C3)NC(=O)[C@H](CC(C)C)NC(=O)[C@H](Cc3ccccc3)NC(=O)[C@H](C)NC(=O)[C@H](CCCCNC(C)C)NC(=O)[C@H](CCC(N)=O)NC(=O)[C@H](CC(=O)O)NC1=O)NC(=O)[C@H](CC1CCCCC1)NC(=O)[C@H](CC(N)=O)NC2=O` (stereo partly drawn) [I-2165, Ac-PL3-Asn-Cha-B5-Asp-Gln-iPrLys-Ala-Phe-Leu-PyrS2-Phe-BztA-Hse-NH2] the value was 441 nM.
With `CC(=O)N1CCC[C@]12CC=CCCCC1(CCCC=CCCCOC(=O)N3CC[C@@](C(=O)N[C@@H](Cc4cccc(C(N)=O)c4)C(=O)N[C@@H](Cc4csc5ccccc45)C(=O)N[C@@H](CCO)C(N)=O)(C3)NC(=O)[C@H](CC(C)C)NC(=O)[C@H](Cc3ccccc3)NC(=O)[C@H](C)NC(=O)[C@H](CCCCNC(C)C)NC(=O)[C@H](CCC(N)=O)NC(=O)[C@H](CC(=O)O)NC1=O)NC(=O)[C@H](CC1CCCCC1)NC(=O)[C@H](CC(N)=O)NC2=O` (stereo partly drawn) [I-2166, Ac-PL3-Asn-Cha-B5-Asp-Gln-iPrLys-Ala-Phe-Leu-PyrS2-3cbmf-BztA-Hse-NH2], the IC50 was found to be 1590 nM.

The values above are taken from patent US20240116985A1, “STAPLED PEPTIDES AND METHODS THEREOF” (priority 2020, published 2024).
